The source of these data is EP2140864A2 (H. Lundbeck A/S, priority 2001, dated 2002).

For one test, the system named is Male Sprague-Dawley rats. Briefly: Rat Forced Swim Test (FST). The note with it: for antidepressant profile in the FST (conclusion): overall conclusion of the study. It counts as in vivo. The procedure:
The procedure used in this study was similar to that previously described (Porsolt, et al., 1978), except the water depth (30 cm in this procedure). The greater depth in this test prevented the rats from supporting themselves by touching the bottom of the cylinder with their feet. Swim sessions were conducted by placing rats in individual plexiglass cylinders (46 cm tall x 20 cm in diameter) containing 23-25°C water 30 cm deep (Porsolt, et al. used a depth of only 15 cm; also, see Detke, et al., 1995). Two swim tests were conducted always between 1200 and 1800 hours: an initial 15-min pretest followed 24 h later by a 5-minute test. […] All other test sessions were conducted between 1300 to 1700 hours. Following all swim sessions, rats were removed from the cylinders, dried with paper towels and placed in a heated cage for 15 minutes and returned to their home cages. All test sessions were videotaped using a Panasonic color video camera and recorder for scoring later.
Male Sprague-Dawley rats (Taconic Farms, NY) were used in all experiments. Rats were housed in pairs and maintained on a 12:12-h light-dark cycle. Rats were handled for 5 minutes each day for 5 days prior to behavioral testing.
The rat's behavior was rated at 5 second intervals during the 5 minute test as one of the following: • 1. Immobility- rat remained floating in the water without struggling and was only making those movements necessary to keep its head above water; • 2. Climbing - rat was making active movements with its forepaws in and out of the water, usually directed against the walls; • 3. Swimming - rat was making active swimming motions, more than necessary to merely maintain its head above water, e.g. moving around in the cylinder; and • 4. Diving - entire body of the rat was submerged.
All of the behavior scoring was done by a single rater, who was blind to the treatment condition. The rater was also present in the room throughout the entire test period.
All injections were given using 1 cc tuberculin syringe with 26 3/8 gauge needles (Becton-Dickinson, VWR Scientific, Bridgeport, NJ). The volume of injection was 1 ml/kg.
The drugs were dissolved in 100% N,N-dimethylacetamide. All administrations were given using 1 cc tuberculin syringes, to which a 3 inch, curved, stainless steel gavage needle was attached. The volume of administration was 1 ml/kg.
The compounds were dissolved in 100% N,N-dimethylacetamide. All administrations were given using 1 cc tuberculin syringes, to which a 3 inch, curved, stainless steel gavage needle was attached. The volume of administration was 1 ml/kg.
The forced swim test data (immobility, swimming, climbing, diving) were subjected to a randomized, one-way ANOVA and post hoc tests conducted using the Student-Newman-heuls test. The data were analyzed using the GBSTAT program, version 6.5 (Dynamics Microsystems, Inc., Silver Spring, MD, 1997). All data are presented as means ± S.E.M.

In another test the target is T1, human 5HT6 (Homo sapiens, UniProt P50406).
T1 construct: expressed in transfected cells
T1 sequence (P50406 whole entry): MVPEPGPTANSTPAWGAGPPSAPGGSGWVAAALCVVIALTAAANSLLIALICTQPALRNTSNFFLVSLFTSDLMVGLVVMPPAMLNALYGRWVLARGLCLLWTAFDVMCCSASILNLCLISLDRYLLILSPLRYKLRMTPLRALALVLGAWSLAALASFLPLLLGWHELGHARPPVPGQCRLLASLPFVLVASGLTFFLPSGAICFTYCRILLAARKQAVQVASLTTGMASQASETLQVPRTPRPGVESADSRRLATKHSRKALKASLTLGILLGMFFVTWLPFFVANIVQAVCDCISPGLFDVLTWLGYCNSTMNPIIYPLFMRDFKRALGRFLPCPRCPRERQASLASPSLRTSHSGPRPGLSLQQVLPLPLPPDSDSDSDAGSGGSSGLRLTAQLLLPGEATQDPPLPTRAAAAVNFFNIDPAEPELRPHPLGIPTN
Briefly: Radioligand binding, 5-HT6 receptor. How it is done: Other 5-HT Receptors: Other serotonin receptor binding assays were performed according to published methods: rat 5HT2C receptor (Julius et al., 1988); and 5-HT6 (Monsma, et al., 1993). The binding assays using the 5-HT4 receptor were performed according to the procedures described in U.S. Patent No. 5,766,879, the disclosure of which is hereby incorporated by reference in its entirety into this application.
(§1) Binding data were analyzed using nonlinear regression and statistical techniques available in the GraphPAD Prism package (San Diego, CA). Enzymatic assay data were derived from a standard curve of reference compound data.

The next test deals with 5HT transporter (Rattus norvegicus, UniProt P31652). The test is described as follows: Binding at native 5HT transporter. The procedure: (§2) The binding properties of the compounds of the present invention were evaluated at one or more cloned receptors or native, tissue-derived transporters, using protocols described below.
Chain of 5HT transporter (P31652 whole entry): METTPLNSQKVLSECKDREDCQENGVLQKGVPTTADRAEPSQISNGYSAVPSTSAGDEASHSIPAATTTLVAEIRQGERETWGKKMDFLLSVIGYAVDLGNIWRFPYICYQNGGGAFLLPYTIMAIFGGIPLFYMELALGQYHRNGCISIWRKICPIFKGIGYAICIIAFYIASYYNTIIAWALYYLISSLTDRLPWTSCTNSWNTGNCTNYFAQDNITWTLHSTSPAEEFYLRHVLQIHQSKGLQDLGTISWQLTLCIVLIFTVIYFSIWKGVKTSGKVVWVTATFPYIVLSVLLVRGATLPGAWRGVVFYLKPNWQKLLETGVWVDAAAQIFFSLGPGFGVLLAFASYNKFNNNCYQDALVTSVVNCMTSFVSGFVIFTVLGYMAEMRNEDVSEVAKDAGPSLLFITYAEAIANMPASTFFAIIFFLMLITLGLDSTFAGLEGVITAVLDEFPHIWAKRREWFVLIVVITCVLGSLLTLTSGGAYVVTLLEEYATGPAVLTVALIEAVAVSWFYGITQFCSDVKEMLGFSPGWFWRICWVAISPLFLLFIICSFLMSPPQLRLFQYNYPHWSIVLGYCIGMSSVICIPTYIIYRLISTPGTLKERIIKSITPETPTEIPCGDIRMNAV
(§3) The methods to determine binding affinity at native transporters are described in the following publications: 5HT transporter and NE transporter (Owens et al., 1997), and DA transporter (Javitch et al, 1984).
as §1

The next test relates to NE transporter. The test is described as follows: Binding at native NE transporter. Conditions: Table 8; Ki rNE Uptk divided by Ki hGAL3. The procedure: as §2, §3, §1
Setting [1] is: 3 mg/kg p.o., single administration, 1 hr. before test.
[2] abbreviates: 10 mg/kg p.o., single administration, 1 hr. before test.
Where [3] appears, read: 30 mg/kg p.o., single administration, 1 hr. before test.
[4] abbreviates: Table 8; Ki r5HT Uptk divided by Ki hGAL3.
The mark [5] stands for this setting: Table 8; Ki h5HT6 divided by Ki hGAL3.
Where [6] appears, read: Table 7; native transporter, head prints r (rat); read-out: r5HT Uptk Ki.
[7] abbreviates: 30 mg/kg i.p., single injection, 5 minute test.
[8] abbreviates: 0.3 mg/kg p.o., single administration, 1 hr. before test.
[9] abbreviates: 1 mg/kg p.o., single administration, 1 hr. before test.

pKi: −log10 of the molar value. Like-named read-outs stand apart in the source and are kept apart here. Marks after values point to notes of the source that are not given here.

The term pKi denotes the negative decadic logarithm of the Ki, by convention in mol/L. `COC[C@@H]1[C@@H](c2ccccc2)OCCN1c1nc(Nc2ccc(C)cc2)cc(N2CCCCC2)n1` [Example 49]: in the test with Male Sprague-Dawley rats (setting [1]), the Climbing came to 3.0 ± 0.7, the Diving amounted to 1.0 ± 0.7, the Immobility was found to be 43 ± 1.9 and the Swimming is recorded as 13.1 ± 1.4. In the test on Male Sprague-Dawley rats (setting [2]), this compound showed a Climbing of 2.4 ± 0.7, a Diving of 0.0 ± 0.0, an Immobility of 48 ± 1.7 and a Swimming of 10.0 ± 1.0. In the test with Male Sprague-Dawley rats (setting [3]), the Climbing worked out at 2.3 ± 0.4, the Diving is listed as 0.4 ± 0.4, the Immobility is reported as 41 ± 2.0^a and the Swimming is given as 16.7 ± 1.3^d. The pKi on human 5HT6 (read-out: h5HT6 Ki; Table 7) was 7.89. For the same compound, the “selectivity ratio r5HT Uptk” value on 5HT transporter (setting [4]) is recorded as over 100. Besides, on 5HT transporter (read-out: r5HT Uptk Ki; Table 7; native transporter, head prints r (rat)), the pKi was 4.39.
Consider `O=C1C(=Nc2cc(Cl)cc(Cl)c2)c2ccccc2N1c1ccccc1` [Example 103, 3-[(3,5-DICHLOROPHENYL)IMINO]-1-PHENYL-1,3-DIHYDRO-2H-INDOL-2-ONE], for which, in the test with Male Sprague-Dawley rats (setting [1]), the Climbing is 2.8 ± 0.6, the Diving is reported as 0.5 ± 0.4 and the Immobility is recorded as 44 ± 2.7. Further, in the test on Male Sprague-Dawley rats (setting [2]), the Climbing came out at 3.5 ± 0.6, the Diving is given as 0.4 ± 0.2, the Immobility is on record as 42 ± 2.2 and the Swimming came out at 14.3 ± 1.6. Moreover, in the test on Male Sprague-Dawley rats (setting [3]), the Climbing is 4.8 ± 0.7, the Diving was 1.1 ± 0.5, the Immobility is reported as 32 ± 1.8^a and the Swimming is 22.7 ± 1.1^c. Besides, the “antidepressant profile in the FST (conclusion)” value with Male Sprague-Dawley rats is recorded as “has antidepressant properties”.
For the compound `Cc1ccc(Nc2cc(N3CCCCC3)nc(N(C)CCc3c[nH]c4ccccc34)n2)cc1` [Example 11], the pKi was 6.10 on human 5HT6 (Table 7; read-out: h5HT6 Ki) and 5.80 at 5HT transporter (setting [6]). Also, the “selectivity ratio h5HT6” value on human 5HT6 (setting [5]) is listed as 9. The “selectivity ratio r5HT Uptk” value at 5HT transporter (setting [4]) was determined as 18. For the same compound, the “selectivity ratio rNE Uptk” value with NE transporter is given as over 100.
As to `CN(CCc1c[nH]c2ccccc12)c1nc(Nc2ccc(F)c(F)c2)cc(N2CCCCC2)n1` [Example 15], the pKi at human 5HT6 (Table 7; read-out: h5HT6 Ki) was 5.84; at 5HT transporter (setting [6]) it was 5.76. For the same compound, the “selectivity ratio h5HT6” value on human 5HT6 (setting [5]) is 20. Also, the “selectivity ratio r5HT Uptk” value at 5HT transporter (setting [4]) was found to be 24. For the same compound, the “selectivity ratio rNE Uptk” value in the test on NE transporter is over 100.
Take `O=C1C(=Nc2cccc(C(F)(F)F)c2)c2ccccc2N1c1ccccc1` [Example 92, 1-PHENYL-3- [[3-(TRIFLUOROMETHYL)PHENYL]IMINO]-1,3-DIHYDRO-2H-INDOL-2-ONE]: the Climbing in the test with Male Sprague-Dawley rats (1 mg/kg i.p., single injection, 5 minute test) is on record as 11.7 ± 1.1 counts; in the test on Male Sprague-Dawley rats (3 mg/kg i.p., single injection, 5 minute test) it was 14.6 ± 1.5 counts; in the test with Male Sprague-Dawley rats (setting [7]), 8.6 ± 1.7 counts. The compound further gave an Immobility in the test on Male Sprague-Dawley rats (setting [7]) of 25 ± 3.5 counts. For the same compound, at human 5HT6 (setting [5]), the “selectivity ratio h5HT6” value is recorded as over 100. Moreover, at 5HT transporter (setting [4]), the “selectivity ratio r5HT Uptk” value is over 100.
For `Cc1ccc(Nc2cc(N3CCCCC3)nc(N3CCN(c4ncccc4C(F)(F)F)CC3)n2)cc1` [Example 34], the Climbing is on record as 3.3 ± 0.7 in the test with Male Sprague-Dawley rats (setting [8]), 5.0 ± 0.8^c with Male Sprague-Dawley rats (setting [9]), 4.3 ± 0.8 in the test on Male Sprague-Dawley rats (setting [1]) and 2.0 ± 0.4 in the test on Male Sprague-Dawley rats (setting [2]). The Diving was 0.2 ± 0.1 in the test with Male Sprague-Dawley rats (setting [8]), 0.3 ± 0.2 in the test on Male Sprague-Dawley rats (setting [9]), 0.3 ± 0.3 with Male Sprague-Dawley rats (setting [1]) and 0.4 ± 0.3 in the test on Male Sprague-Dawley rats (setting [2]). The Immobility in the test on Male Sprague-Dawley rats (setting [8]) is recorded as 45 ± 1.5^a; in the test with Male Sprague-Dawley rats (setting [9]) it was 35 ± 1.9^b; in the test on Male Sprague-Dawley rats (setting [1]), 35 ± 2.0^b; in the test with Male Sprague-Dawley rats (setting [2]) it was 49 ± 1.4. In addition, the Swimming with Male Sprague-Dawley rats (setting [8]) is on record as 11.6 ± 0.9^d; in the test with Male Sprague-Dawley rats (setting [9]) it was 19.6 ± 1.3^d,e; in the test with Male Sprague-Dawley rats (setting [1]) it was 20.8 ± 1.3^d,e; in the test with Male Sprague-Dawley rats (setting [2]) it was 8.2 ± 1.2. In the test on Male Sprague-Dawley rats, the “antidepressant profile in the FST (conclusion)” value is “resembles that of antidepressants”. Besides, the results for the pKi on human 5HT6 (Table 7; read-out: h5HT6 Ki) and at 5HT transporter (setting [6]) were 4.41 and 4.43, respectively. Also, the “selectivity ratio h5HT6” value at human 5HT6 (setting [5]) is on record as over 100. Further, the “selectivity ratio r5HT Uptk” value on 5HT transporter (setting [4]) is given as over 100. Further, in the test on NE transporter, the “selectivity ratio rNE Uptk” value was over 100.
